According to US12077503B2, “Substituted cyclic amides and their use as herbicides” (FMC CORPORATION, priority 2015, dated 2024):

Columns and labels:
Type in all cases: in vivo
[1] = test system: redroot pigweed (Amaranthus retroflexus); test: Test G Pre-Emergence Protocol; conditions: Amaranthus retroflexus, pre-emergence, 312 h, evaluated after 13 days
In short: (§1)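 Pots of seeds in standard soil were grown for one day in a glasshouse (24/16 °C day/night, 14 h light, 65% humidity), then sprayed with compound in acetone/water 50:50 with 0.5% Tween 20 at 15.625, 62.5 or 250 g/ha. Damage was scored after 13 days on a 0 (none) to 100 (total) scale.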

[2] = test system: giant foxtail (Setaria faberi); test: Test G Pre-Emergence Protocol; conditions: Setaria faberi, pre-emergence, 312 h, evaluated after 13 days
In short: as §1

[3] = test system: corn (Zea mays); test: Test G Pre-Emergence Protocol; conditions: Zea mays, pre-emergence, 312 h, evaluated after 13 days
In short: as §1

[4] = test system: velvetleaf (Abutilon theophrasti); test: Test G Pre-Emergence Protocol; conditions: Abutilon theophrasti, pre-emergence, 312 h, evaluated after 13 days
In short: as §1

[5] = test system: ivy-leaved morning glory (Ipomoea hederacea); test: Test G Pre-Emergence Protocol; conditions: Ipomoea, pre-emergence, 312 h, evaluated after 13 days
In short: as §1

[6] = test system: barnyardgrass (Echinochloa crus-galli); test: Test G Pre-Emergence Protocol; conditions: Echinochloa crus-galli, pre-emergence, 312 h, evaluated after 13 days
In short: as §1

[7] = test system: redroot pigweed (Amaranthus retroflexus); test: Test G Post-Emergence Protocol; conditions: Amaranthus retroflexus, post-emergence, 312 h, read-out: Pigweed, Redroot damage rating
In short: (§2)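 Post-emergence herbicidal damage, scored visually 0–100 at 13 days. Application at 15.625, 62.5 or 250 g/ha onto 8-day-old plants grown under glasshouse control.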

[8] = test system: giant foxtail (Setaria faberi); test: Test G Post-Emergence Protocol; conditions: Setaria faberi, post-emergence, 312 h, read-out: Foxtail, Giant damage rating
In short: as §2

[9] = test system: corn (Zea mays); test: Test G Post-Emergence Protocol; conditions: Zea mays, post-emergence, 312 h, read-out: Corn damage rating
In short: as §2

[10] = test system: velvetleaf (Abutilon theophrasti); test: Test G Post-Emergence Protocol; conditions: Abutilon theophrasti, post-emergence, 312 h, read-out: Velvetleaf damage rating
In short: as §2

[11] = test system: ivy-leaved morning glory (Ipomoea hederacea); test: Test G Post-Emergence Protocol; conditions: Ipomoea, post-emergence, 312 h, read-out: Morningglory, Ivy-leaved damage rating
In short: as §2

[12] = test system: barnyardgrass (Echinochloa crus-galli); test: Test G Post-Emergence Protocol; conditions: Echinochloa crus-galli, post-emergence, 312 h, read-out: Barnyardgrass damage rating
In short: as §2

[13] = 15.625 g ai/ha, evaluated after 13 days (100=total damage to plant; 0=no damage to plant)
[14] = 62.5 g ai/ha, evaluated after 13 days, 100=total damage to plant, 0=no damage to plant
[15] = 250 g ai/ha, evaluated after 13 days, 100=total damage to plant, 0=no damage to plant

## CN1C[C@H](c2cccc(C(F)(F)F)c2)[C@@H](C(=O)Nc2cccc(O)c2F)C1=O (racemic) [Compound 1806]
[1]; 15.625 g ai/ha, read-out: Pigweed, Redroot damage rating (100=total damage to plant; 0=no damage to plant)
  pest or weed control at 15.625 g/ha: 0%
[1]; 62.5 g ai/ha, 100=total damage to plant, 0=no damage to plant, read-out: Pigweed, Redroot damage rating
  pest or weed control at 62.5 g/ha: 0%
[1]; 250 g ai/ha, read-out: Pigweed, Redroot damage rating (100=total damage to plant; 0=no damage to plant)
  pest or weed control at 250 g/ha: 10%
[2]; 15.625 g ai/ha, read-out: Foxtail, Giant damage rating (100=total damage to plant; 0=no damage to plant)
  pest or weed control at 15.625 g/ha: 20%
[2]; 62.5 g ai/ha, 100=total damage to plant, 0=no damage to plant, read-out: Foxtail, Giant damage rating
  pest or weed control at 62.5 g/ha: 20%
[2]; 250 g ai/ha, read-out: Foxtail, Giant damage rating (100=total damage to plant; 0=no damage to plant)
  pest or weed control at 250 g/ha: 30%
[3]; 15.625 g ai/ha, read-out: Corn damage rating (100=total damage to plant; 0=no damage to plant)
  plant injury at 15.625 g/ha: 0%
[3]; 62.5 g ai/ha, 100=total damage to plant, 0=no damage to plant, read-out: Corn damage rating
  plant injury at 62.5 g/ha: 0%
[3]; 250 g ai/ha, read-out: Corn damage rating (100=total damage to plant; 0=no damage to plant)
  plant injury at 250 g/ha: 0%
[4]; 15.625 g ai/ha, read-out: Velvetleaf damage rating (100=total damage to plant; 0=no damage to plant)
  pest or weed control at 15.625 g/ha: 0%
[4]; 62.5 g ai/ha, 100=total damage to plant, 0=no damage to plant, read-out: Velvetleaf damage rating
  pest or weed control at 62.5 g/ha: 0%
[4]; 250 g ai/ha, read-out: Velvetleaf damage rating (100=total damage to plant; 0=no damage to plant)
  pest or weed control at 250 g/ha: 0%
[5]; 15.625 g ai/ha, read-out: Morningglory, Ivy-leaved damage rating (100=total damage to plant; 0=no damage to plant)
  pest or weed control at 15.625 g/ha: 0%
[5]; 62.5 g ai/ha, 100=total damage to plant, 0=no damage to plant, read-out: Morningglory, Ivy-leaved damage rating
  pest or weed control at 62.5 g/ha: 0%
[5]; 250 g ai/ha, read-out: Morningglory, Ivy-leaved damage rating (100=total damage to plant; 0=no damage to plant)
  pest or weed control at 250 g/ha: 0%
[6]; 15.625 g ai/ha, read-out: Barnyardgrass damage rating (100=total damage to plant; 0=no damage to plant)
  pest or weed control at 15.625 g/ha: 0%
[6]; 62.5 g ai/ha, 100=total damage to plant, 0=no damage to plant, read-out: Barnyardgrass damage rating
  pest or weed control at 62.5 g/ha: 10%
[6]; 250 g ai/ha, read-out: Barnyardgrass damage rating (100=total damage to plant; 0=no damage to plant)
  pest or weed control at 250 g/ha: 20%
[7]; [13]
  pest or weed control at 15.625 g/ha: 0%
[7]; [14]
  pest or weed control at 62.5 g/ha: 0%
[7]; [15]
  pest or weed control at 250 g/ha: 0%
[8]; [13]
  pest or weed control at 15.625 g/ha: 0%
[8]; [14]
  pest or weed control at 62.5 g/ha: 60%
[8]; [15]
  pest or weed control at 250 g/ha: 60%
[9]; [13]
  plant injury at 15.625 g/ha: 0%
[9]; [14]
  plant injury at 62.5 g/ha: 0%
[9]; [15]
  plant injury at 250 g/ha: 40%
[10]; [13]
  pest or weed control at 15.625 g/ha: 0%
[10]; [14]
  pest or weed control at 62.5 g/ha: 0%
[10]; [15]
  pest or weed control at 250 g/ha: 0%
[11]; [13]
  pest or weed control at 15.625 g/ha: 0%
[11]; [14]
  pest or weed control at 62.5 g/ha: 0%
[11]; [15]
  pest or weed control at 250 g/ha: 0%
[12]; [13]
  pest or weed control at 15.625 g/ha: 0%
[12]; [14]
  pest or weed control at 62.5 g/ha: 20%
[12]; [15]
  pest or weed control at 250 g/ha: 50%
